Assay results reported in PubChem BioAssay AID2060909 (Molecular Pharmacology Branch, DTP, NCI, 2025).
Each block holds one compound with its values, some of them ahead of it.

Tested on: 362531-283-R-J2-PDC complex spheroid viability
Assay: Anticancer human tumor 362531-283-R-J2-PDC patient-derived colon adenocarcinoma cell line growth inhibition [RAS]
Conditions: for IC50: curve of first compound; for viability, T/C: stronger effect = lower value
In short: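 Tumour cells grown as complex spheroids with HUVEC endothelial cells and mesenchymal stem cells, treated with RAS pathway inhibitor combinations. Each agent spans half-log steps from near clinical Cmax, or 10 microM where Cmax is unknown.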
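Further: spheroids exposed to the agents for 7 days before readout.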
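Wherever viability, T/C is given: luminescence viability as percent of DMSO vehicle control wells.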

IC50 (second compound 0.0316 µM): > 10000 nM
IC50 (second compound 0.1 µM): > 10000 nM
IC50 (second compound 0.316 µM): > 10000 nM
IC50 (second compound 1 µM): > 10000 nM
IC50 (second compound 3.16 µM): 8750 nM
IC50 (second compound 10 µM): 3610 nM
SMILES: C[C@@H](NC(=O)c1ncnc(N)c1Cl)c1ncc(C(=O)Nc2cc(C(F)(F)F)c(Cl)cn2)s1 + C#Cc1c(F)ccc2cc(O)cc(-c3ncc4c(N5CC6CCC(C5)N6)nc(OCC56CCCN5CC(F)C6)nc4c3F)c12
viability, T/C (second compound 0.0316 µM, first compound 0.0316 µM): 92.9%
viability, T/C (second compound 0.0316 µM, first compound 0.1 µM): 111%
viability, T/C (second compound 0.0316 µM, first compound 0.316 µM): 111%
viability, T/C (second compound 0.0316 µM, first compound 1 µM): 97%
viability, T/C (second compound 0.0316 µM, first compound 3.16 µM): 92.4%
viability, T/C (second compound 0.0316 µM, first compound 10 µM): 70.5%
viability, T/C (second compound 0.1 µM, first compound 0.0316 µM): 104%
viability, T/C (second compound 0.1 µM, first compound 0.1 µM): 97.1%
viability, T/C (second compound 0.1 µM, first compound 0.316 µM): 94.8%
viability, T/C (second compound 0.1 µM, first compound 1 µM): 95.3%
viability, T/C (second compound 0.1 µM, first compound 3.16 µM): 93.6%
viability, T/C (second compound 0.1 µM, first compound 10 µM): 66.1%
viability, T/C (second compound 0.316 µM, first compound 0.0316 µM): 94.2%
viability, T/C (second compound 0.316 µM, first compound 0.1 µM): 96.9%
viability, T/C (second compound 0.316 µM, first compound 0.316 µM): 93.4%
viability, T/C (second compound 0.316 µM, first compound 1 µM): 94.4%
viability, T/C (second compound 0.316 µM, first compound 3.16 µM): 91.6%
viability, T/C (second compound 0.316 µM, first compound 10 µM): 60.7%
viability, T/C (second compound 1 µM, first compound 0.0316 µM): 94.3%
viability, T/C (second compound 1 µM, first compound 0.1 µM): 84.8%
viability, T/C (second compound 1 µM, first compound 0.316 µM): 99.3%
viability, T/C (second compound 1 µM, first compound 1 µM): 87%
viability, T/C (second compound 1 µM, first compound 3.16 µM): 92.8%
viability, T/C (second compound 1 µM, first compound 10 µM): 52.5%
viability, T/C (second compound 3.16 µM, first compound 0.0316 µM): 78.6%
viability, T/C (second compound 3.16 µM, first compound 0.1 µM): 80.3%
viability, T/C (second compound 3.16 µM, first compound 0.316 µM): 79.2%
viability, T/C (second compound 3.16 µM, first compound 1 µM): 74.1%
viability, T/C (second compound 3.16 µM, first compound 3.16 µM): 69.8%
viability, T/C (second compound 3.16 µM, first compound 10 µM): 47.2%
viability, T/C (second compound 10 µM, first compound 0.0316 µM): 63%
viability, T/C (second compound 10 µM, first compound 0.1 µM): 75.4%
viability, T/C (second compound 10 µM, first compound 0.316 µM): 71.7%
viability, T/C (second compound 10 µM, first compound 1 µM): 60.6%
viability, T/C (second compound 10 µM, first compound 3.16 µM): 53.4%
viability, T/C (second compound 10 µM, first compound 10 µM): 31.6%

IC50 (second compound 0.000949 µM): 181 nM
IC50 (second compound 0.003 µM): 177 nM
IC50 (second compound 0.00949 µM): 128 nM
IC50 (second compound 0.03 µM): 141 nM
IC50 (second compound 0.0949 µM): 80 nM
IC50 (second compound 0.3 µM): < 3.16 nM
SMILES: Nc1ccn(C2OC(CO)C(O)C2(F)F)c(=O)n1 (centres undefined) + CCn1c(-c2cc(N3CCN(C)CC3)cnc2C(C)OC)c2c3cc(ccc31)-c1csc(n1)CC(NC(=O)C1CC1C)C(=O)N1CCCC(N1)C(=O)OCC(C)(C)C2
viability, T/C (second compound 0.000949 µM, first compound 0.00316 µM): 98.9%
viability, T/C (second compound 0.000949 µM, first compound 0.01 µM): 108%
viability, T/C (second compound 0.000949 µM, first compound 0.0316 µM): 80.5%
viability, T/C (second compound 0.000949 µM, first compound 0.1 µM): 75.7%
viability, T/C (second compound 0.000949 µM, first compound 0.316 µM): 23.7%
viability, T/C (second compound 0.000949 µM, first compound 1 µM): 27.7%
viability, T/C (second compound 0.003 µM, first compound 0.00316 µM): 110%
viability, T/C (second compound 0.003 µM, first compound 0.01 µM): 91%
viability, T/C (second compound 0.003 µM, first compound 0.0316 µM): 82%
viability, T/C (second compound 0.003 µM, first compound 0.1 µM): 75.7%
viability, T/C (second compound 0.003 µM, first compound 0.316 µM): 18.9%
viability, T/C (second compound 0.003 µM, first compound 1 µM): 29.3%
viability, T/C (second compound 0.00949 µM, first compound 0.00316 µM): 95%
viability, T/C (second compound 0.00949 µM, first compound 0.01 µM): 101%
viability, T/C (second compound 0.00949 µM, first compound 0.0316 µM): 66.7%
viability, T/C (second compound 0.00949 µM, first compound 0.1 µM): 69.5%
viability, T/C (second compound 0.00949 µM, first compound 0.316 µM): 17.6%
viability, T/C (second compound 0.00949 µM, first compound 1 µM): 24.9%
viability, T/C (second compound 0.03 µM, first compound 0.00316 µM): 97.9%
viability, T/C (second compound 0.03 µM, first compound 0.01 µM): 86.8%
viability, T/C (second compound 0.03 µM, first compound 0.0316 µM): 75.5%
viability, T/C (second compound 0.03 µM, first compound 0.1 µM): 63.6%
viability, T/C (second compound 0.03 µM, first compound 0.316 µM): 15.3%
viability, T/C (second compound 0.03 µM, first compound 1 µM): 21.6%
viability, T/C (second compound 0.0949 µM, first compound 0.00316 µM): 80.2%
viability, T/C (second compound 0.0949 µM, first compound 0.01 µM): 80%
viability, T/C (second compound 0.0949 µM, first compound 0.0316 µM): 64.4%
viability, T/C (second compound 0.0949 µM, first compound 0.1 µM): 49.9%
viability, T/C (second compound 0.0949 µM, first compound 0.316 µM): 10.8%
viability, T/C (second compound 0.0949 µM, first compound 1 µM): 17.4%
viability, T/C (second compound 0.3 µM, first compound 0.00316 µM): 40.9%
viability, T/C (second compound 0.3 µM, first compound 0.01 µM): 46.2%
viability, T/C (second compound 0.3 µM, first compound 0.0316 µM): 28.5%
viability, T/C (second compound 0.3 µM, first compound 0.1 µM): 25.1%
viability, T/C (second compound 0.3 µM, first compound 0.316 µM): 14.6%
viability, T/C (second compound 0.3 µM, first compound 1 µM): 10.3%
